Results from PMC1871596, “Requirement of aggregation propensity of Alzheimer amyloid peptides for neuronal cell surface binding” (BMC Neuroscience, 2007).

What was measured:
[1] = unlabelled mutant; cited from earlier work
Source text: We also studied a double mutant (F19S/L34P) of Aβ42 (hereon referred to as 'mutant peptide'), which was discovered through a GFP-based screen for mutations that reduce the aggregation p ...

[2] = test system: NGF differentiated PC12 cells; experiment: Blocking the binding of Aβ42 to the surface of live PC12 cells (flow cytometry); format: cell-based, rat; details: cells pre-treated with the reagent, then TMR-labelled Aβ42 1.5 μM for 1-2 hours, trypsin 10 μg/mL 15 min then SBTI, Figure 6A
Description: NGF differentiated PC12 cells treated with Aβ (1.5 μM) were washed once with cold D-PBS, followed by mechanical detachment with D-PBS. Collected cells were centrifuged (200 × g for 1 minute) and resuspended in cold flow buffer containing 5 mM EDTA and 1% BSA (Fisher Scientific, Nepean, ON) in D-PBS. Samples were immediately analyzed with a FACS Calibur flow cytometer (Becton Dickinson, Mississauga, ON). TMR-labelled samples were detected with 585/42 filter collecting 5 × 10^4 events per sample using 100–300 events/s flow rate. Cell viability was assessed with 25 μg/mL 7-Aminoactinomycin D (7-AAD) treatment for 5 minutes and detected with a long pass 650 nm filter. Data collection and analysis were performed using Cell Quest version 3.3 and figures were created using WinMDI version 2.8 software.
Various treatments to block or remove lipid, carbohydrate, or protein components from the surface of live PC12 cells were performed and their effects on Aβ binding was examined. NGF differentiated PC12 cells were treated with 100 ng/mL FITC labelled annexin V (to block negatively charged phospholipids) or 10 μg/mL FITC labelled cholera toxin subunit B (to block GM1 ganglioside) for 20 minutes before addition of Aβ42 (final concentration 1.5 μM) for two hours. […] After Aβ42 addition, treated cells and untreated control cells were analyzed using flow cytometry.

Row | Molecule | aggregation state of the mutant [1] | effect of cell surface treatment on Aβ42 binding [2]
1 | DAEFRHDSGYEVHHQKLVSFAEDVGSNKGAIIGPMVGGVVIA [double mutant (F19S/L34P) of Aβ42, double mutant (F19S/L34P) of Aβ42 with reduced aggregation propensity, unlabelled] | soluble unstructured monomeric peptide | 
2 | trypsin: protease (9590 units/mg) used to remove cell surface proteins from PC12 cells (protein, UniProt P00760 24-246, looked up) Serine protease 1: IVGGYTCGANTVPYQVSLNSGYHFCGGSLINSQWVVSAAHCYKSGIQVRLGEDNINVVEGNEQFISASKSIVHPSYNSNTLNNDIMLIKLKSAASLNSRVASISLPTSCASAGTQCLISGWGNTKSSGTSYPDVLKCLKAPILSDSSCKSAYPGQITSNMFCAGYLEGGKDSCQGDSGGPVVCSGKLQGIVSWGSGCAQKNKPGVYTKVCNYVSWIKQTIASN |  | significantly decreased
